Assay results from patent publication US12691070B2, “Cationic lipids and preparation method thereof” (RiboX Therapeutics HK Limited, priority 2023, dated 2026).

Assays:
BALB/C mice [1] = test: Local tolerance determination by footpad injection; type: in vivo; conditions: cirRNA (SEQ ID NO: 1) LNP, 0.175 mg*kg-1 subcutaneous into the footpad, 24 hours post minus prior
Experimental: 6-8 week old, female BALB/C mice were injected with 0.175 mg*kg-1 RNA LNPs by subcutaneous injection into the footpad. Prior to, and 24 hours post injections, injected footpad thickness was determined by a caliper.

[2] = test system: Aspartate Aminotransferase (AST); test: Liver enzyme elevation in serum, AST; type: in vivo; conditions: cirRNA (SEQ ID NO: 1) LNPs, BALB/C mice, intravenous 0.5 MPK
Experimental: (§1) 6-8 week old, female BALB/C mice were injected with 0.5 mg*kg-1 of RNA LNPs by intravenous injection. At 2 and 24 hours post injection, animals were bled and sera concentrations of Alanine Aminotransferase (ALT) and Aspartate Aminotransferase (AST) were determined by a blood chemistry analyzer.

BALB/C mice [3] = test: In vivo expression, whole-body luminescence (IVIS)
Experimental: 6-8 week old, female BALB/C mice were injected with 0.05 mg*kg-1 of RNA-LNPs encoding for firefly-luciferase by intravenous injection. At 6 hours post injection, animals were intraperitoneally injected with 15 mg/ml of Luciferin substrate and whole-body luminescence was determined by a bioluminescent in vivo imaging system (IVIS).

RAW 264.7 cells [4] = test: In vitro toxicity (CellTiter-Glo cell viability), RAW 264.7; type: cell-based;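 further: percent of untreated cells luminescence signal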
In short: (§2)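 First, cells receive RNA-LNPs at 1 μg/mL by transfection. After 72 hours, CellTiter-Glo reagent is added per kit protocol. Luminescence is then read and converted to cell viability.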

[5] = LNP size and polydispersity index (PDI) by dynamic light scattering; type: physicochemical; conditions: for Size: in nm (unit assumed)
In short: (§3)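 LNPs of ionizable lipid/DSPC/cholesterol/DMG-PEG 2000 (50:10:38.5:1.5) made by microfluidic mixing of luciferase circRNA or mRNA in pH 4.5 acetate with lipids in ethanol (3:1, 12 ml/min), ionizable lipid:nucleotide 15 or 6, then dialyzed against PBS. Size, PDI (DLS) and zeta potential on Zetasizer; encapsulation by Ribogreen ± Triton X-100.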

MCP-I = MCP-I cytokine elevation in serum; type: in vivo; conditions: cirRNA (SEQ ID NO: 1) LNPs, mice
Experimental: 6-8 week old, female BALB/C mice were injected with 0.5 mg*kg-1 of RNA LNPs by intravenous injection. At 2 and 24 hours post injection, animals were bled and sera concentrations of MCP-I were determined by an immunoassay (Luminex).

[6] = RNA encapsulation efficacy by Quant-IT Ribogreen kit; type: physicochemical; conditions: for Encapsulation Efficiency %: LNP with cirRNA (SEQ ID NO: 1); for Encapsulation Efficiency: LNP with mRNA (SEQ ID NO: 2)
In short: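 Ribogreen read-out: encapsulation = 100% − (signal of intact RNA-LNPs / signal with Triton X-100). Particles: ionizable lipid:DSPC:Chol:DMG-PEG2000 50:10:38.5:1.5, ionizable lipid:ribonucleotide 15 or 6, final lipid 1.5–6 mM, PBS-dialyzed.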

[7] = test system: Alanine Aminotransferase (ALT); test: Liver enzyme elevation in serum, ALT; type: in vivo; conditions: cirRNA (SEQ ID NO: 1) LNPs, BALB/C mice, intravenous 0.5 MPK
Experimental: as §1

Hep G2 cells [8] = test: In vitro toxicity (CellTiter-Glo cell viability), Hep G2; type: cell-based;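 further: percent of untreated cells luminescence signal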
In short: as §2

Hep G2 cells [9] = test: In vitro expression of firefly-luciferase, Hep G2; type: cell-based
In short: (§4)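 Both cell lines receive RNA-LNPs carrying firefly-luciferase RNA at 100 ng/mL. Lysis follows washing at 72 h post-transfection, and luciferase activity is then quantified on a luminometer using a commercial luciferase assay reagent.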

RAW 264.7 cells [10] = test: In vitro expression of firefly-luciferase, RAW 264.7; type: cell-based
In short: as §4

[11] = LNP zeta potential (Zetasizer); type: physicochemical
In short: as §3

[12] = cirRNA (SEQ ID NO: 1) LNPs, BALB/C mice
[13] = mRNA (SEQ ID NO: 2) LNP, 0.05 mg*kg-1 intravenous, 6 hours post injection
[14] = cirRNA (SEQ ID NO: 1) LNPs, RAW 264.7 cells
[15] = mRNA (SEQ ID NO: 2) LNP, 1 μg/mL, 72 hours post transfection
[16] = cirRNA (SEQ ID NO: 1) LNPs, Hep G2 cells
[17] = cirRNA (SEQ ID NO: 1) LNPs, firefly-luciferase luminescence, Hep G2 cells
[18] = mRNA (SEQ ID NO: 2) LNP, 100 ng/mL, 72 hours post transfection, luciferase activity
[19] = cirRNA (SEQ ID NO: 1) LNPs, firefly-luciferase luminescence, RAW 264.7 cells

Row | SMILES | Footpad Thickness (24 h−0 h, mm) (BALB/C mice [1]) [mm] | AST in Sera (IU/L) 2 hours After 0.5 MPK Injection [2] [IU/L] | AST in Sera (IU/L) 24 hours After 0.5 MPK Injection [2] [IU/L] | In vivo Expression (Whole Body) (BALB/C mice [3]; [12]) | In vivo Expression (Whole Body) (BALB/C mice [3]; [13]) | In vitro Viability RAW (RAW 264.7 cells [4]; [14]) [%] | In vitro Viability RAW (RAW 264.7 cells [4]; [15]) [%] | PDI ([5]; LNP with cirRNA (SEQ ID NO: 1)) | Size ([5]; LNP with cirRNA (SEQ ID NO: 1)) | PDI ([5]; LNP with mRNA (SEQ ID NO: 2)) | Size ([5]; LNP with mRNA (SEQ ID NO: 2)) | MCP-I in Sera 2 hours After 0.5 MPK Injection (MCP-I) [pg/mL] | Encapsulation Efficiency % [6] [%] | Encapsulation Efficiency [6] [%] | ALT in Sera (IU/L) 2 hours After 0.5 MPK Injection [7] [IU/L] | ALT in Sera (IU/L) 24 hours After 0.5 MPK Injection [7] [IU/L] | In vitro Viability HepG2 (Hep G2 cells [8]; [16]) [%] | In vitro Viability HepG2 (Hep G2 cells [8]; [15]) [%] | In vitro Expression HepG2 (Hep G2 cells [9]; [17]) | In vitro Expression HepG2 (Hep G2 cells [9]; [18]) | also measured
1 | CCCCCCCCCCC(CCCCCCCC)COC(=O)CCCCCN(CCCCCCCCOC(=O)C(CCCCCC)CCCCCCCC)CCOC(=O)NCCN(C)C (stereo not drawn) [Lipid 51, 2-octyldodecyl 10-(8-((2-hexyldecanoyl)oxy)octyl)-2-methyl-6-oxo-7-oxa-2,5,10-triazahexadecan-16-oate] | 1.11 | 193.77 | 94.73 | 6.85E+08 | 1.78E+09 | 104 | 80 | 0.04 | 89.19 | 0.1368 | 79.21 | 3296.20 | 97 | 89 | 71.07 | 45.50 | 88 | 83 | 9.85E+05 | 4.66E+07 | MCP-I in Sera 24 hours After 0.5 MPK Injection (MCP-I): 562.40 pg/mL; In vitro Expression RAW (RAW 264.7 cells [10]; [19]): 8.74E+06; In vitro Expression RAW (RAW 264.7 cells [10]; [18]): 2.63E+06; Zeta (mV) ([11]; LNP with cirRNA (SEQ ID NO: 1)): −0.71 mV; Zeta (mV) ([11]; LNP with mRNA (SEQ ID NO: 2)): 3.197 mV
2 | CCCCCCCCC(CCCCCCCC)OC(=O)CCCCCCCN(CCCCCCCCOC(=O)C(CCCCCC)CCCCCCCC)CCOC(=O)NCCN(C)C (stereo not drawn) [Lipid 66, heptadecan-9-yl 10-(8-((2-hexyldecanoyl)oxy)octyl)-2-methyl-6-oxo-7-oxa-2,5,10-triazaoctadecan-18-oate] | 1.43 | 176.40 | 148.60 | 2.03E+09 | 3.50E+09 | 100 | 72 | 0.05 | 86.66 | 0.09823 | 75.46 | 7911.52 | 96 | 88.25 | 51.97 | 63.6 | 93 | 82 | 9.78E+07 | 1.59E+08 | MCP-I in Sera 24 hours After 0.5 MPK Injection (MCP-I): 448.43 pg/mL; In vitro Expression RAW (RAW 264.7 cells [10]; [19]): 9.90E+06; In vitro Expression RAW (RAW 264.7 cells [10]; [18]): 6.79E+06; Zeta (mV) ([11]; LNP with cirRNA (SEQ ID NO: 1)): −2.1 mV; Zeta (mV) ([11]; LNP with mRNA (SEQ ID NO: 2)): 2.213 mV
3 | CCCCC/C=C\C/C=C\CCCCCCCCN(CCCCCCCC/C=C\CCCCCCCC)CCOC(=O)NCc1ncc[nH]1 [Lipid 68, 2-(((Z)-octadec-9-en-1-yl)((9Z,12Z)-octadeca-9,12-dien-1-yl)amino)ethyl ((1H-imidazol-2-yl)methyl)carbamate] | 1.00 | 81.27 | 60.20 | 1.34E+08 | 1.54E+08 | 67 | 104 | 0.12 | 57.94 | 0.1057 | 61.9 | 129.34 | 92 | 88 | 40.77 | 33.37 | 99 | 100 | 2.63E+06 | 3.74E+03 | In vitro Expression RAW (RAW 264.7 cells [10]; [19]): 6.86E+05; In vitro Expression RAW (RAW 264.7 cells [10]; [18]): 5.58E+02; Zeta (mV) ([11]; LNP with cirRNA (SEQ ID NO: 1)): −0.647 mV; Zeta (mV) ([11]; LNP with mRNA (SEQ ID NO: 2)): 5.641 mV
4 | CCCCC/C=C\C/C=C\CCCCCCCCN(CCCCCC(=O)OCC(CCCCCCCC)CCCCCCCCCC)CCOC(=O)NCCN(C)C (stereo not drawn) [Lipid 75, 2-octyldodecyl 2-methyl-10-((9Z,12Z)-octadeca-9,12-dien-1-yl)-6-oxo-7-oxa-2,5,10-triazahexadecan-16-oate] | 0.85 | 279.87 | 94.83 | 9.85E+08 | 4.22E+08 | 75 | 96 | 0.13 | 91.13 | 0.1903 | 70.28 | 8335.00 | 97 | 89 | 111.37 | 48.97 | 85 | 95 | 1.94E+06 | 9.23E+06 | MCP-I in Sera 24 hours After 0.5 MPK Injection (MCP-I): 93.14 pg/mL; In vitro Expression RAW (RAW 264.7 cells [10]; [19]): 2.08E+06; In vitro Expression RAW (RAW 264.7 cells [10]; [18]): 2.18E+06; Zeta (mV) ([11]; LNP with cirRNA (SEQ ID NO: 1)): 1.59 mV; Zeta (mV) ([11]; LNP with mRNA (SEQ ID NO: 2)): 13.66 mV
